Experimental data published in ChEMBL document CHEMBL4270599, “Synthesis of a 3'-C-ethynyl-β-d-ribofuranose purine nucleoside library: Discovery of C7-deazapurine analogs as potent antiproliferative nucleosides” (Eur J Med Chem, 2018).

Legend:
Format in all cases: functional
[1] = test system: SF-268; experiment: Growth inhibition of human SF268 cells assessed as cell growth at 10^-4 M incubated for 48 hrs by sulforhodamine B assay relative to control; conditions: SF-268, 48 h, read-out: Activity
[2] = test system: NCI-H522; experiment: Growth inhibition of human NCI-H522 cells assessed as cell growth at 10^-6 M incubated for 48 hrs by sulforhodamine B assay relative to control; conditions: NCI-H522, 48 h, read-out: Activity
[3] = test system: IGROV-1; experiment: Growth inhibition of human IGROV1 cells assessed as cell growth at 10^-6 M incubated for 48 hrs by sulforhodamine B assay relative to control; conditions: IGROV-1, 48 h, read-out: Activity
[4] = test system: T47D; experiment: Growth inhibition of human T47D cells assessed as cell growth at 10^-6 M incubated for 48 hrs by sulforhodamine B assay relative to control; conditions: read-out: Activity
[5] = test system: MDA-MB-468; experiment: Growth inhibition of human MDA-MB-468 cells assessed as cell growth at 10^-6 M incubated for 48 hrs by sulforhodamine B assay relative to control; conditions: MDA-MB-468, 48 h, read-out: Activity
[6] = test system: RPMI-8226; experiment: Growth inhibition of human RPMI8226 cells assessed as cell growth at 10^-5 M incubated for 48 hrs by sulforhodamine B assay relative to control; conditions: RPMI-8226, 48 h, read-out: Activity
[7] = test system: A549; experiment: Growth inhibition of human A549/ATCC cells assessed as cell growth at 10^-5 M incubated for 48 hrs by sulforhodamine B assay relative to control; conditions: A549, 48 h, read-out: Activity
[8] = test system: HOP-92; experiment: Growth inhibition of human HOP92 cells assessed as cell growth at 10^-5 M incubated for 48 hrs by sulforhodamine B assay relative to control; conditions: HOP-92, 48 h, read-out: Activity
[9] = test system: NCI-H522; experiment: Growth inhibition of human NCI-H522 cells assessed as cell growth at 10^-5 M incubated for 48 hrs by sulforhodamine B assay relative to control; conditions: NCI-H522, 48 h, read-out: Activity
[10] = test system: HCC 2998; experiment: Growth inhibition of human HCC2998 cells assessed as cell growth at 10^-5 M incubated for 48 hrs by sulforhodamine B assay relative to control; conditions: HCC 2998, 48 h, read-out: Activity
[11] = test system: SF-539; experiment: Growth inhibition of human SF539 cells assessed as cell growth at 10^-5 M incubated for 48 hrs by sulforhodamine B assay relative to control; conditions: SF-539, 48 h, read-out: Activity
[12] = test system: LOX IMVI; experiment: Growth inhibition of human LOXIMVI cells assessed as cell growth at 10^-5 M incubated for 48 hrs by sulforhodamine B assay relative to control; conditions: read-out: Activity
[13] = test system: IGROV-1; experiment: Growth inhibition of human IGROV1 cells assessed as cell growth at 10^-5 M incubated for 48 hrs by sulforhodamine B assay relative to control; conditions: IGROV-1, 48 h, read-out: Activity
[14] = test system: OVCAR-3; experiment: Growth inhibition of human OVCAR3 cells assessed as cell growth at 10^-5 M incubated for 48 hrs by sulforhodamine B assay relative to control; conditions: OVCAR-3, 48 h, read-out: Activity
[15] = test system: 786-0; experiment: Growth inhibition of human 786-0 cells assessed as cell growth at 10^-5 M incubated for 48 hrs by sulforhodamine B assay relative to control; conditions: 786-0, 48 h, read-out: Activity
[16] = test system: RXF 393; experiment: Growth inhibition of human RXF393 cells assessed as cell growth at 10^-5 M incubated for 48 hrs by sulforhodamine B assay relative to control; conditions: RXF 393, 48 h, read-out: Activity
[17] = test system: UO-31; experiment: Growth inhibition of human UO31 cells assessed as cell growth at 10^-5 M incubated for 48 hrs by sulforhodamine B assay relative to control; conditions: UO-31, 48 h, read-out: Activity
[18] = test system: T47D; experiment: Growth inhibition of human T47D cells assessed as cell growth at 10^-5 M incubated for 48 hrs by sulforhodamine B assay relative to control; conditions: read-out: Activity
[19] = test system: MDA-MB-468; experiment: Growth inhibition of human MDA-MB-468 cells assessed as cell growth at 10^-5 M incubated for 48 hrs by sulforhodamine B assay relative to control; conditions: MDA-MB-468, 48 h, read-out: Activity
[20] = test system: EKVX; experiment: Growth inhibition of human EKVX cells assessed as cell growth at 10^-4 M incubated for 48 hrs by sulforhodamine B assay relative to control; conditions: read-out: Activity
[21] = test system: HOP-92; experiment: Growth inhibition of human HOP92 cells assessed as cell growth at 10^-4 M incubated for 48 hrs by sulforhodamine B assay relative to control; conditions: HOP-92, 48 h, read-out: Activity
[22] = test system: NCI-H460; experiment: Growth inhibition of human NCI-H460 cells assessed as cell growth at 10^-4 M incubated for 48 hrs by sulforhodamine B assay relative to control; conditions: NCI-H460, 48 h, read-out: Activity
[23] = test system: COLO 205; experiment: Growth inhibition of human COLO205 cells assessed as cell growth at 10^-4 M incubated for 48 hrs by sulforhodamine B assay relative to control; conditions: COLO 205, 48 h, read-out: Activity
[24] = test system: HCC 2998; experiment: Growth inhibition of human HCC2998 cells assessed as cell growth at 10^-4 M incubated for 48 hrs by sulforhodamine B assay relative to control; conditions: HCC 2998, 48 h, read-out: Activity
[25] = test system: SF-295; experiment: Growth inhibition of human SF295 cells assessed as cell growth at 10^-4 M incubated for 48 hrs by sulforhodamine B assay relative to control; conditions: SF-295, 48 h, read-out: Activity
[26] = test system: SF-539; experiment: Growth inhibition of human SF539 cells assessed as cell growth at 10^-4 M incubated for 48 hrs by sulforhodamine B assay relative to control; conditions: SF-539, 48 h, read-out: Activity
[27] = test system: Malme-3M; experiment: Growth inhibition of human MALME-3M cells assessed as cell growth at 10^-4 M incubated for 48 hrs by sulforhodamine B assay relative to control; conditions: read-out: Activity
[28] = test system: MDA-MB-435; experiment: Growth inhibition of human MDA-MB-435 cells assessed as cell growth at 10^-4 M incubated for 48 hrs by sulforhodamine B assay relative to control; conditions: MDA-MB-435, 48 h, read-out: Activity
[29] = test system: SK-MEL-2; experiment: Growth inhibition of human SK-MEL-2 cells assessed as cell growth at 10^-4 M incubated for 48 hrs by sulforhodamine B assay relative to control; conditions: SK-MEL-2, 48 h, read-out: Activity
[30] = test system: OVCAR-8; experiment: Growth inhibition of human OVCAR8 cells assessed as cell growth at 10^-4 M incubated for 48 hrs by sulforhodamine B assay relative to control; conditions: OVCAR-8, 48 h, read-out: Activity
[31] = test system: 786-0; experiment: Growth inhibition of human 786-0 cells assessed as cell growth at 10^-4 M incubated for 48 hrs by sulforhodamine B assay relative to control; conditions: 786-0, 48 h, read-out: Activity
[32] = test system: RXF 393; experiment: Growth inhibition of human RXF393 cells assessed as cell growth at 10^-4 M incubated for 48 hrs by sulforhodamine B assay relative to control; conditions: RXF 393, 48 h, read-out: Activity
[33] = test system: BT-549; experiment: Growth inhibition of human BT549 cells assessed as cell growth at 10^-4 M incubated for 48 hrs by sulforhodamine B assay relative to control; conditions: BT-549, 48 h, read-out: Activity
[34] = test system: MDA-MB-468; experiment: Growth inhibition of human MDA-MB-468 cells assessed as cell growth at 10^-4 M incubated for 48 hrs by sulforhodamine B assay relative to control; conditions: MDA-MB-468, 48 h, read-out: Activity

Row | SMILES | growth at 100 µM [1] | growth at 1 µM [2] | growth at 1 µM [3] | growth at 1 µM [4] | growth at 1 µM [5] | growth at 10 µM [6] | growth at 10 µM [7] | growth at 10 µM [8] | growth at 10 µM [9] | growth at 10 µM [10] | growth at 10 µM [11] | growth at 10 µM [12] | growth at 10 µM [13] | growth at 10 µM [14] | growth at 10 µM [15] | growth at 10 µM [16] | growth at 10 µM [17] | growth at 10 µM [18] | growth at 10 µM [19] | growth at 100 µM [20] | further results
1 | C#C[C@@]1(O)[C@@H](CO)O[C@@H](n2cc(I)c3c(N)ncnc32)[C@@H]1O | -7% | – | – | – | – | – | – | – | – | – | – | – | – | – | – | – | – | – | – | – | –
2 | C#C[C@@]1(O)[C@@H](CO)O[C@@H](n2ccc3c(N)ncnc32)[C@@H]1O | -8% | 29% | 63% | 30% | 64% | 7% | 4% | -29% | -21% | -76% | -48% | -87% | -19% | 3% | -18% | -45% | -55% | -61% | -58% | -26% | growth at 100 µM [21]: -87%; growth at 100 µM [22]: -13%; growth at 100 µM [23]: -72%; growth at 100 µM [24]: -78%; growth at 100 µM [25]: -44%; growth at 100 µM [26]: -82%; growth at 100 µM [27]: -76%; growth at 100 µM [28]: -76%; growth at 100 µM [29]: -34%; growth at 100 µM [30]: -65%; growth at 100 µM [31]: -95%; growth at 100 µM [32]: -92%; growth at 100 µM [33]: -95%; growth at 100 µM [34]: -62%
3 | C#C[C@@]1(O)[C@@H](CO)O[C@@H](n2cc(F)c3c(N)ncnc32)[C@@H]1O | – | -2% | 6% | -10% | 13% | -2% | -26% | -33% | -24% | -45% | -23% | -78% | -33% | 5% | -52% | -46% | -36% | -39% | -57% | -10% | growth at 100 µM [21]: -47%; growth at 100 µM [22]: -38%; growth at 100 µM [23]: -63%; growth at 100 µM [24]: -71%; growth at 100 µM [25]: -74%; growth at 100 µM [26]: -39%; growth at 100 µM [27]: -47%; growth at 100 µM [28]: -63%; growth at 100 µM [29]: -36%; growth at 100 µM [30]: -27%; growth at 100 µM [31]: -36%; growth at 100 µM [32]: -49%; growth at 100 µM [33]: -42%; growth at 100 µM [34]: -68%
